Results: ChEMBL document CHEMBL5107949, “Design, synthesis, and antibacterial activity of N-(trifluoromethyl)phenyl substituted pyrazole derivatives” (RSC Med Chem, 2021)
Converted amounts (≈) assume the structure as drawn. The source made the active and inactive calls. No cut-off for these calls is given here.

How the values were obtained:
[1] = system: Enterococcus faecalis; assay: Antibacterial activity against Enterococcus faecalis clinical isolate 1100440 assessed as inhibition of bacterial growth by CLSI protocol based broth microdilution method; assay type: functional
[2] = system: Enterococcus faecalis; assay: Inhibition of biofilm formation in Enterococcus faecalis ATCC 29212 at 12.5 ug/ml incubated for 24 hrs by Calgary biofilm device assay; assay type: functional; details: dose 12.5 µg/ml
[3] = system: Enterococcus faecalis; assay: Antibacterial activity against antibiotic susceptible Enterococcus faecalis ATCC 29212 assessed as inhibition of bacterial growth by CLSI protocol based broth microdilution method; assay type: functional
[4] = system: Staphylococcus aureus; assay: Inhibition of protein synthesis in Staphylococcus aureus ATCC 29213 at 0.5 times MIC preincubated for 30 mins followed by [3H]-leucine and measured after 40 mins by [3H]-leucine incorporation based beta scintillation counter analysis; assay type: functional; details: time 70.0 min
[5] = system: Staphylococcus aureus; assay: Antibacterial activity against Staphylococcus aureus clinical isolate 1088105 assessed as inhibition of bacterial growth by CLSI protocol based broth microdilution method; assay type: functional
[6] = system: Staphylococcus aureus; assay: Bactericidal activity against Staphylococcus aureus ATCC 700699 persisters assessed as log reduction in colony forming unit at 32 times MIC measured for 4 hrs by time kill assay; assay type: functional
[7] = system: Staphylococcus aureus; assay: Antibacterial activity against Staphylococcus aureus clinical isolate 1088888 assessed as inhibition of bacterial growth by CLSI protocol based broth microdilution method; assay type: functional
[8] = system: Staphylococcus aureus; assay: Antibacterial activity against antibiotic resistant Staphylococcus aureus ATCC 700699 assessed as inhibition of bacterial growth by CLSI protocol based broth microdilution method; assay type: functional
[9] = system: Staphylococcus aureus; assay: Antibacterial activity against Staphylococcus aureus clinical isolate 1088060 assessed as inhibition of bacterial growth by CLSI protocol based broth microdilution method; assay type: functional
[10] = system: Staphylococcus aureus; assay: Inhibition of biofilm formation in Staphylococcus aureus ATCC 25923 at 3.125 to 12.5 ug/ml incubated for 24 hrs by Calgary biofilm device assay; assay type: functional, organism-based; details: dose 3.125-12.5 µg/ml, DDE = dose-dependent effect
[11] = system: Staphylococcus aureus; assay: Antibacterial activity against Staphylococcus aureus clinical isolate 1088064 assessed as inhibition of bacterial growth by CLSI protocol based broth microdilution method; assay type: functional
[12] = system: Staphylococcus aureus; assay: Inhibition of protein synthesis in Staphylococcus aureus ATCC 29213 at MIC preincubated for 30 mins followed by [3H]-leucine and measured after 40 mins by [3H]-leucine incorporation based beta scintillation counter analysis; assay type: functional; details: time 70.0 min
[13] = system: Staphylococcus aureus; assay: Inhibition of DNA synthesis in Staphylococcus aureus ATCC 29213 at 0.25 times MIC preincubated for 30 mins followed by [3H]-thymidine and measured after 30 mins by [3H]-thymidine incorporation based beta scintillation counter analysis; assay type: functional; details: time 60 min; 1 h
[14] = system: Staphylococcus aureus; assay: Inhibition of DNA synthesis in Staphylococcus aureus ATCC 29213 at 0.5 times MIC preincubated for 30 mins followed by [3H]-thymidine and measured after 30 mins by [3H]-thymidine incorporation based beta scintillation counter analysis; assay type: functional; details: time 60 min; 1 h
[15] = system: Enterococcus faecium; assay: Antibacterial activity against vancomycin resistant Enterococcus faecium ATCC 700221 assessed as inhibition of bacterial growth by CLSI protocol based broth microdilution method; assay type: functional
[16] = system: Enterococcus faecium; assay: Antibacterial activity against Enterococcus faecium clinical isolate 1088228 assessed as inhibition of bacterial growth by CLSI protocol based broth microdilution method; assay type: functional
[17] = system: Staphylococcus epidermidis; assay: Antibacterial activity against antibiotic resistant Staphylococcus epidermidis ATCC 700296 assessed as inhibition of bacterial growth by CLSI protocol based broth microdilution method; assay type: functional
[18] = system: Enterococcus faecalis; assay: Anti-biofilm activity against Enterococcus faecalis ATCC 29212 assessed as eradication of biofilm formation incubated for 24 hrs by Calgary biofilm device assay; assay type: functional
[19] = system: Enterococcus faecium; assay: Antibacterial activity against Enterococcus faecium clinical isolate 1088168 assessed as inhibition of bacterial growth by CLSI protocol based broth microdilution method; assay type: functional
[20] = system: Enterococcus faecalis; assay: Antibacterial activity against Enterococcus faecalis clinical isolate 1094112 assessed as inhibition of bacterial growth by CLSI protocol based broth microdilution method; assay type: functional
[21] = system: Enterococcus faecalis; assay: Anti-biofilm activity against Enterococcus faecalis ATCC 29212 assessed as minimum bactericidal concentration incubated for 24 hrs by Calgary biofilm device assay; details: ATCC 29212, 24 h
[22] = system: Staphylococcus aureus; assay: Antibacterial activity against Staphylococcus aureus clinical isolate 1088626 assessed as inhibition of bacterial growth by CLSI protocol based broth microdilution method; assay type: functional
[23] = system: Enterococcus faecium; assay: Antibacterial activity against Enterococcus faecium clinical isolate 1089544 assessed as inhibition of bacterial growth by CLSI protocol based broth microdilution method; assay type: functional
[24] = system: Staphylococcus aureus; assay: Antibacterial activity against antibiotic resistant Staphylococcus aureus BAA-2312 assessed as inhibition of bacterial growth by CLSI protocol based broth microdilution method; assay type: functional
[25] = system: Enterococcus faecium; assay: Antibacterial activity against Enterococcus faecium clinical isolate 1088925 assessed as inhibition of bacterial growth by CLSI protocol based broth microdilution method; assay type: functional
[26] = system: Enterococcus faecalis; assay: Antibacterial activity against Enterococcus faecalis clinical isolate 1088051 assessed as inhibition of bacterial growth by CLSI protocol based broth microdilution method; assay type: functional
[27] = system: Enterococcus faecium; assay: Antibacterial activity against Enterococcus faecium clinical isolate 1091282 assessed as inhibition of bacterial growth by CLSI protocol based broth microdilution method; assay type: functional
[28] = system: Staphylococcus aureus; assay: Inhibition of lipid synthesis in Staphylococcus aureus ATCC 29213 at MIC preincubated for 30 mins followed by [3H]-glycerol and measured after 50 mins by [3H]-glycerol incorporation based beta scintillation counter analysis; assay type: functional; details: time 80 min; 1.333 h
[29] = system: Staphylococcus aureus; assay: Antibacterial activity against Staphylococcus aureus clinical isolate 1089106 assessed as inhibition of bacterial growth by CLSI protocol based broth microdilution method; assay type: functional
[30] = system: Staphylococcus aureus; assay: Inhibition of lipid synthesis in Staphylococcus aureus ATCC 29213 at 0.5 times MIC preincubated for 30 mins followed by [3H]-glycerol and measured after 50 mins by [3H]-glycerol incorporation based beta scintillation counter analysis; assay type: functional; details: time 80 min; 1.333 h
[31] = system: Staphylococcus aureus; assay: Antibacterial activity against Staphylococcus aureus clinical isolate 1088610 assessed as inhibition of bacterial growth by CLSI protocol based broth microdilution method; assay type: functional
[32] = Cytotoxicity against human HEK293 cells reduction in cell viability incubated for 24 hrs by resazurin cell viability assay; assay type: toxicity, cell-based
[33] = system: Staphylococcus aureus; assay: Bactericidal activity against Staphylococcus aureus ATCC 700699 persisters assessed as log reduction in colony forming unit at 16 times MIC measured for 4 hrs by time kill assay; assay type: functional
[34] = system: Staphylococcus aureus; assay: Inhibition of RNA synthesis in Staphylococcus aureus ATCC 29213 at 0.25 times MIC preincubated for 30 mins followed by [3H]-uridine and measured after 30 mins by [3H]-uridine incorporation based beta scintillation counter analysis; assay type: functional; details: time 60 min; 1 h
[35] = system: Enterococcus faecalis; assay: Inhibition of biofilm formation in Enterococcus faecalis ATCC 29212 at 6.25 ug/ml incubated for 24 hrs by Calgary biofilm device assay; assay type: functional; details: dose 6.25 µg/ml
[36] = system: Staphylococcus aureus; assay: Antibacterial activity against Staphylococcus aureus ATCC 29213 assessed as inhibition of bacterial growth by CLSI protocol based broth microdilution method; assay type: functional
[37] = system: Staphylococcus aureus; assay: Bactericidal activity against Staphylococcus aureus ATCC 700699 persisters assessed as log reduction in colony forming unit at 2 to 32 times MIC measured for 4 hrs by time kill assay; assay type: functional, organism-based; details: DDE = dose-dependent effect

For `O=C(O)c1ccc(-c2nn(-c3ccc(C(F)(F)F)cc3)cc2CNc2ccc(Br)c(C(F)(F)F)c2)cc1`, the MIC [1] was 8 µg/mL (≈ 13.7 µM), the inhibition [2] was “Active” and the MIC [3] was 3.12 µg/mL (≈ 5.35 µM). The inhibition [4] was 53.3%, the MIC [5] was 4 µg/mL (≈ 6.85 µM) and the “log(activity)” value [6] was 5. It also gave an MIC [7] of 8 µg/mL (≈ 13.7 µM), an MIC [8] of 0.78 µg/mL (≈ 1.33 µM) and an MIC [9] of 4 µg/mL (≈ 6.85 µM). The inhibition [10] was “Dde”, the MIC [11] was 4 µg/mL (≈ 6.85 µM) and the inhibition [12] was 86.1%. The “inhibition (INH)” value [13] was 44%, the “inhibition (INH)” value [14] was 43.6% and the MIC [15] was 0.78 µg/mL (≈ 1.33 µM). The MIC [16] was 8 µg/mL (≈ 13.7 µM), the MIC [17] was 1.56 µg/mL (≈ 2.67 µM) and the MBEC [18] was 6.25 µg/mL. It also gave an MIC [19] of 4 µg/mL (≈ 6.85 µM), an MIC [20] of 8 µg/mL (≈ 13.7 µM) and an MBC [21] of 6.25 µg/mL (≈ 10.7 µM). It also gave an MIC [22] of 4 µg/mL (≈ 6.85 µM), an MIC [23] of 8 µg/mL (≈ 13.7 µM) and an MIC [24] of 1.56 µg/mL (≈ 2.67 µM). The MIC [25] was 8 µg/mL (≈ 13.7 µM), the MIC [26] was 4 µg/mL (≈ 6.85 µM) and the MIC [27] was 8 µg/mL (≈ 13.7 µM). The “inhibition (INH)” value [28] was 88.3%, the MIC [29] was 4 µg/mL (≈ 6.85 µM) and the “inhibition (INH)” value [30] was 57%. For the same molecule, the MIC [31] was 4 µg/mL (≈ 6.85 µM), the IC50 at 24 h [32] was > 12 µg/mL and the “log(activity)” value [33] was 3. For the same molecule, the “inhibition (INH)” value [34] was 14.1%, the inhibition [35] was “Active” and the MIC [36] was 1 µg/mL (≈ 1.71 µM). The Activity [37] was “Dde”.
